SMILES strings stand for the structures. Numbers after ± are expanded uncertainties.

We go through five compounds from the NIST ThermoML archive (doi:10.1021/je400004j).

The data set can be described thus: xn = mol fraction of the nth substance listed. To be noted: 298.15 K, Ring tensiometer.

For `CCOP(=O)([O-])OCC.CCn1cc[n+](CC)c1` [1,3-diethyl-1H-imidazol-3-ium diethyl phosphate] + CCO, the surface tension liquid-gas was found to be 22.6 ± 0.3 mN/m (x1 = 0.1); 23.4 ± 0.4 mN/m (x1 = 0.2); 24.6 ± 0.4 mN/m (x1 = 0.3); 26.3 ± 0.4 mN/m (x1 = 0.4); 27.8 ± 0.4 mN/m (x1 = 0.5); 29.6 ± 0.4 mN/m (x1 = 0.6). Also, the surface tension liquid-gas is 31.1 ± 0.4 mN/m (x1 = 0.7), 32.5 ± 0.5 mN/m (x1 = 0.8), 34.1 ± 0.5 mN/m (x1 = 0.9) and 35.5 ± 0.5 mN/m (x1 = 1).

For the compound `CCOP(=O)([O-])OCC.CCn1cc[n+](CC)c1` [1,3-diethyl-1H-imidazol-3-ium diethyl phosphate] + CO, the surface tension liquid-gas (x1 = 0.1) turned out to be 26.4 ± 0.4 mN/m; the surface tension liquid-gas (x1 = 0.2) was 28.6 ± 0.4 mN/m; the surface tension liquid-gas (x1 = 0.3) amounted to 30.3 ± 0.4 mN/m; the surface tension liquid-gas (x1 = 0.4) is on record as 31.6 ± 0.5 mN/m; the surface tension liquid-gas (x1 = 0.5) was 33 ± 0.5 mN/m; the surface tension liquid-gas (x1 = 0.6) is given as 34 ± 0.5 mN/m. Besides, the surface tension liquid-gas runs as follows: (x1 = 0.7) 34.4 ± 0.5 mN/m; (x1 = 0.8) 36.1 ± 0.5 mN/m; (x1 = 0.9) 35.9 ± 0.5 mN/m; (x1 = 1) 35.5 ± 0.5 mN/m.

Regarding `CCOP(=O)([O-])OCC.CCn1cc[n+](CC)c1` [1,3-diethyl-1H-imidazol-3-ium diethyl phosphate] + O, the surface tension liquid-gas is, setting by setting: (x1 = 0.1) 40.7 ± 0.7 mN/m; (x1 = 0.2) 37.4 ± 0.5 mN/m; (x1 = 0.3) 37.2 ± 0.5 mN/m; (x1 = 0.4) 36.6 ± 0.5 mN/m; (x1 = 0.5) 36.4 ± 0.5 mN/m; (x1 = 0.6) 36.2 ± 0.5 mN/m. For the same compound, the surface tension liquid-gas (x1 = 0.7) amounted to 36 ± 0.5 mN/m, the surface tension liquid-gas (x1 = 0.8) stood at 36.1 ± 0.5 mN/m, the surface tension liquid-gas (x1 = 0.9) worked out at 35.9 ± 0.5 mN/m and the surface tension liquid-gas (x1 = 1) is recorded as 35.5 ± 0.5 mN/m.

On to `COP(=O)([O-])OC.Cn1cc[n+](C)c1` [1,3-dimethylimidazolium dimethylphosphate] + CCO, for which the surface tension liquid-gas is listed as 23.2 ± 0.4 mN/m (x1 = 0.1); 24.5 ± 0.4 mN/m (x1 = 0.2); 26.1 ± 0.4 mN/m (x1 = 0.3); 28.2 ± 0.4 mN/m (x1 = 0.4); 30.5 ± 0.4 mN/m (x1 = 0.5); 32.7 ± 0.5 mN/m (x1 = 0.6). Moreover, the surface tension liquid-gas (x1 = 0.7) came to 35 ± 0.5 mN/m, the surface tension liquid-gas (x1 = 0.8) is recorded as 37.5 ± 0.5 mN/m, the surface tension liquid-gas (x1 = 0.9) amounted to 41.4 ± 0.6 mN/m and the surface tension liquid-gas (x1 = 1) turned out to be 48.4 ± 0.6 mN/m.

Turning to `COP(=O)([O-])OC.Cn1cc[n+](C)c1` [1,3-dimethylimidazolium dimethylphosphate] + CO, the surface tension liquid-gas worked out at 26.9 ± 0.4 mN/m (x1 = 0.1); 30.4 ± 0.4 mN/m (x1 = 0.2); 33.1 ± 0.5 mN/m (x1 = 0.3); 35.7 ± 0.5 mN/m (x1 = 0.4); 38.1 ± 0.5 mN/m (x1 = 0.5); 40 ± 0.5 mN/m (x1 = 0.6). Besides, the surface tension liquid-gas (x1 = 0.7) was found to be 41.6 ± 0.6 mN/m, the surface tension liquid-gas (x1 = 0.8) came out at 43.6 ± 0.6 mN/m, the surface tension liquid-gas (x1 = 0.9) amounted to 46.2 ± 0.6 mN/m and the surface tension liquid-gas (x1 = 1) stood at 48.4 ± 0.6 mN/m.

A word on the surface tension liquid-gas: it is the work needed to enlarge the surface of a liquid by unit area.
